From publication PMC5908784, “Extracellular loops 2 and 3 of the calcitonin receptor selectively modify agonist binding and efficacy” (Biochemical Pharmacology, 2018)
Substitutions are numbered along the chain they refer to. Where a SMILES comes first, the peptide text is derived from it. Bridges are numbered along the chain shown (N, C = ends).

Assays:
Test in all cases: IP1 accumulation
Type in all cases: cell-based
Conditions in all cases: mean ± S.E.M.; for Emax: IP1 maximal response, SEM
hCTR P360A = target: T1, hCTR P360A (Homo sapiens, UniProt P30988, P360A)
T1 construct: expressed in transfected cells
T1 sequence (P30988 25-474 P360A): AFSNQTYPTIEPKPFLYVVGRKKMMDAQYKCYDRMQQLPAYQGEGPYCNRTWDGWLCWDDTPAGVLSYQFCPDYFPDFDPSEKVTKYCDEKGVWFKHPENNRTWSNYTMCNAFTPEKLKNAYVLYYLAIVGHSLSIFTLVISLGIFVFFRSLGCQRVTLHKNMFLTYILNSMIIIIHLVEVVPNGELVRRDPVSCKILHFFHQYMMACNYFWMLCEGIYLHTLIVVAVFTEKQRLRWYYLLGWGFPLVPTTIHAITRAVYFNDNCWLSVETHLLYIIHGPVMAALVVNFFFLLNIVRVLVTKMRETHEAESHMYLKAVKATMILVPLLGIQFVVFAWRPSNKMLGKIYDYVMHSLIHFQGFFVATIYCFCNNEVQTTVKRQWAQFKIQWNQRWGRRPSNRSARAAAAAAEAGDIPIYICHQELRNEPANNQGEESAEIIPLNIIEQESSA
Protocol: (§1) Cells (2.5 × 10^4 cells/well) were plated into 96 well trays and cultured overnight. Cells were stimulated with increasing concentration of ligands for 60 min in the presence of LiCl. Samples were lysed and endogenous IP1 was measured using an IP-One HTRF® assay kit (CisBio) as specified by the manufacturer. Data were normalized to the maximal response elicited by 100 μM of ATP.
(§2) Data were corrected for radioligand occupancy using the Cheng-Prusoff equation in Prism; as such data are reported as pKi. Emax and EC50 were estimated from concentration-response curves using with a 3-parameter logistic equation in Prism (v7). These values are a composite of functional affinity, efficacy and stimulus response coupling. […] Significance was accepted at P < 0.05.

hCTR Y374A = target: T2, hCTR Y374A (Homo sapiens, UniProt P30988, Y374A)
T2 construct: c-Myc (N); expressed in transfected cells
T2 sequence (P30988 25-474 Y374A): T1 sequence (P30988 25-474 P360A) with A336P, Y350A
Protocol: as §1, §2

hCTR N288A = target: T3, hCTR N288A (Homo sapiens, UniProt P30988, N288A)
T3 construct: expressed in transfected cells
T3 sequence (P30988 25-474 N288A): T1 sequence (P30988 25-474 P360A) with N264A, A336P
Protocol: as §1, §2

hCTR Y284A = target: T4, hCTR Y284A (Homo sapiens, UniProt P30988, Y284A)
T4 construct: expressed in transfected cells
T4 sequence (P30988 25-474 Y284A): T1 sequence (P30988 25-474 P360A) with Y260A, A336P
Protocol: as §1, §2

hCTR T295A = target: T5, hCTR T295A (Homo sapiens, UniProt P30988, T295A)
T5 construct: c-Myc (N); expressed in transfected cells
T5 sequence (P30988 25-474 T295A): T1 sequence (P30988 25-474 P360A) with T271A, A336P
Protocol: as §1, §2

[1] = IP1, CV1-FlpIn cells, 60 min, LiCl

Compound | Emax (hCTR P360A) | Emax (hCTR Y374A) | Emax (hCTR N288A) | Emax (hCTR Y284A) | Emax (hCTR T295A) | EC50 (hCTR P360A; [1]) | EC50 (hCTR Y374A; [1]) | EC50 (hCTR N288A; [1]) | EC50 (hCTR Y284A; [1]) | EC50 (hCTR T295A; [1])
CC[C@H](C)[C@H](NC(=O)[C@H](C)NC(=O)[C@@H](NC(=O)[C@H](CCC(N)=O)NC(=O)[C@@H]1CCCN1C(=O)[C@H](Cc1ccccc1)NC(=O)[C@@H](NC(=O)[C@H](Cc1c[nH]cn1)NC(=O)[C@H](Cc1ccccc1)NC(=O)[C@H](CCCCN)NC(=O)[C@H](CC(N)=O)NC(=O)[C@H](Cc1ccccc1)NC(=O)[C@H](CC(=O)O)NC(=O)[C@H](CCC(N)=O)NC(=O)[C@@H](NC(=O)[C@H](Cc1ccc(O)cc1)NC(=O)[C@@H](NC(=O)CNC(=O)[C@H](CC(C)C)NC(=O)[C@H](CCSC)NC(=O)[C@@H]1CSSC[C@H](N)C(=O)NCC(=O)N[C@@H](CC(N)=O)C(=O)N[C@@H](CC(C)C)C(=O)N[C@@H](CO)C(=O)N[C@@H]([C@@H](C)O)C(=O)N1)[C@@H](C)O)[C@@H](C)O)[C@@H](C)O)[C@@H](C)O)C(=O)NCC(=O)N[C@H](C(=O)NCC(=O)N[C@@H](C)C(=O)N1CCC[C@H]1C(N)=O)C(C)C [hCT] | 95 ± 8% | 110 ± 9% | 91 ± 8% | 81 ± 12% | 43 ± 4% |  |  |  |  | 
CSCC[C@H](NC(=O)CNC(=O)[C@H](CO)NC(=O)[C@H](Cc1ccccc1)NC(=O)[C@H](CCCNC(=N)N)NC(=O)[C@H](Cc1c[nH]cn1)NC(=O)[C@H](Cc1ccccc1)NC(=O)[C@H](CC(N)=O)NC(=O)[C@H](CC(N)=O)NC(=O)[C@H](CC(C)C)NC(=O)[C@H](CC(N)=O)NC(=O)[C@H](CCCNC(=N)N)NC(=O)[C@H](Cc1c[nH]c2ccccc12)NC(=O)[C@H](Cc1ccc(O)cc1)NC(=O)[C@H](C)NC(=O)[C@H](CO)NC(=O)[C@H](CC(C)C)NC(=O)[C@@H](NC(=O)[C@@H]1CSSC[C@H](N)C(=O)N[C@@H](CO)C(=O)N[C@@H](CC(N)=O)C(=O)N[C@@H](CC(C)C)C(=O)N[C@@H](CO)C(=O)N[C@@H]([C@@H](C)O)C(=O)N1)C(C)C)C(=O)NCC(=O)N[C@@H](Cc1ccccc1)C(=O)NCC(=O)N1CCC[C@H]1C(=O)N[C@@H](CCC(=O)O)C(=O)N[C@H](C(=O)N1CCC[C@H]1C(N)=O)[C@@H](C)O [pCT] (H-CSNLSTCVLSAYWRNLNNFHRFSGMGFGPETP-NH2; disulfide 1-7) | 107 ± 12% | 106 ± 6% | 93 ± 7% | 94 ± 6% | 56 ± 7% | 85.1 nM | 12.3 nM | 1.91 nM | 1.15 nM | 4.57 nM
CC(C)C[C@H](NC(=O)[C@H](CCCCN)NC(=O)CNC(=O)[C@H](CC(C)C)NC(=O)[C@@H](NC(=O)[C@@H]1CSSC[C@H](N)C(=O)N[C@@H](CO)C(=O)N[C@@H](CC(N)=O)C(=O)N[C@@H](CC(C)C)C(=O)N[C@@H](CO)C(=O)N[C@@H]([C@@H](C)O)C(=O)N1)C(C)C)C(=O)N[C@@H](CO)C(=O)N[C@@H](CCC(N)=O)C(=O)N[C@@H](CCC(=O)O)C(=O)N[C@@H](CC(C)C)C(=O)N[C@@H](Cc1c[nH]cn1)C(=O)N[C@@H](CCCCN)C(=O)N[C@@H](CC(C)C)C(=O)N[C@@H](CCC(N)=O)C(=O)N[C@H](C(=O)N[C@@H](Cc1ccc(O)cc1)C(=O)N1CCC[C@H]1C(=O)N[C@@H](CCCNC(=N)N)C(=O)N[C@H](C(=O)N[C@@H](CC(N)=O)C(=O)N[C@H](C(=O)NCC(=O)N[C@@H](CO)C(=O)NCC(=O)N[C@H](C(=O)N1CCC[C@H]1C(N)=O)[C@@H](C)O)[C@@H](C)O)[C@@H](C)O)[C@@H](C)O [sCT] | 144 ± 5% | 102 ± 6% | 119 ± 6% | 118 ± 7% | 53 ± 7% |  |  |  |  | 
